In the supplement of paper PMC10307832:

Legend:
Assay in all cases: relative viability (nuclei count vs DMSO), 5 days (fraction); higher = more cells survive
BEN = system: BEN
Outline: (§1)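 Relative viability divides the nuclei count in treated wells by that in vehicle wells. Lung cancer cell lines were seeded in 1536-well plates, dosed by pin tool the next day, and fixed and stained after 5 days in one step with final 0.05% Triton X-100, 1% formaldehyde and 1 ug/ml Hoechst. Dosing was a single drug or a fixed anchor-drug dose plus five library-drug doses (not always all listed) in √10 steps, and values are medians of duplicate plates imaged at 4×.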

CAL-12T = system: CAL-12T
Outline: as §1

H3255 = system: H3255
Outline: as §1

HARA = system: HARA
Outline: as §1

HCC-15 = system: HCC-15
Outline: as §1

HCC-366 = system: HCC-366
Outline: as §1

LC-2-ad = system: LC-2-ad
Outline: as §1

LOU-NH91 = system: LOU-NH91
Outline: as §1

LXF-289 = system: LXF-289
Outline: as §1

NCI-H1395 = system: NCI-H1395
Outline: as §1

NCI-H1651 = system: NCI-H1651
Outline: as §1

NCI-H1793 = system: NCI-H1793
Outline: as §1

NCI-H1915 = system: NCI-H1915
Outline: as §1

NCI-H2085 = system: NCI-H2085
Outline: as §1

NCI-H2170 = system: NCI-H2170
Outline: as §1

NCI-H2347 = system: NCI-H2347
Outline: as §1

NCI-H322M = system: NCI-H322M
Outline: as §1

NCI-H441 = system: NCI-H441
Outline: as §1

NCI-H522 = system: NCI-H522
Outline: as §1

NCI-H647 = system: NCI-H647
Outline: as §1

NCI-H650 = system: NCI-H650
Outline: as §1

NCI-H661 = system: NCI-H661
Outline: as §1

NCI-H838 = system: NCI-H838
Outline: as §1

SK-MES-1 = system: SK-MES-1
Outline: as §1

UMC-11 = system: UMC-11
Outline: as §1

Structure (SMILES): Nc1cccc2c1CN(C1CCC(=O)NC1=O)C2=O (configuration not stated) [Lenalidomide] + CC(=O)c1c(C)c2cnc(Nc3ccc(N4CCNCC4)cn3)nc2n(C2CCCC2)c1=O [Palbociclib] (partner 0.5 µM)
- relative viability (BEN; first compound 0.253 µM): 0.478
- relative viability (BEN; first compound 0.8 µM): 0.496
- relative viability (BEN; first compound 2.53 µM): 0.418
- relative viability (BEN; first compound 8 µM): 0.556
- relative viability (CAL-12T; first compound 0.253 µM): 0.402
- relative viability (CAL-12T; first compound 0.8 µM): 0.579
- relative viability (CAL-12T; first compound 2.53 µM): 0.785
- relative viability (CAL-12T; first compound 8 µM): 0.472
- relative viability (H3255; first compound 0.253 µM): 0.312
- relative viability (H3255; first compound 0.8 µM): 0.302
- relative viability (H3255; first compound 2.53 µM): 0.314
- relative viability (H3255; first compound 8 µM): 0.314
- relative viability (HARA; first compound 0.253 µM): 0.253
- relative viability (HARA; first compound 2.53 µM): 0.293
- relative viability (HARA; first compound 8 µM): 0.253
- relative viability (HCC-15; first compound 0.253 µM): 0.685
- relative viability (HCC-15; first compound 0.8 µM): 0.683
- relative viability (HCC-15; first compound 2.53 µM): 0.904
- relative viability (HCC-15; first compound 8 µM): 0.708
- relative viability (HCC-366; first compound 0.253 µM): 0.437
- relative viability (HCC-366; first compound 0.8 µM): 0.389
- relative viability (HCC-366; first compound 2.53 µM): 0.505
- relative viability (HCC-366; first compound 8 µM): 0.353
- relative viability (LC-2-ad; first compound 0.253 µM): 0.549
- relative viability (LC-2-ad; first compound 0.8 µM): 0.551
- relative viability (LC-2-ad; first compound 2.53 µM): 0.533
- relative viability (LC-2-ad; first compound 8 µM): 0.531
- relative viability (LOU-NH91; first compound 0.253 µM): 0.564
- relative viability (LOU-NH91; first compound 0.8 µM): 0.515
- relative viability (LOU-NH91; first compound 2.53 µM): 0.487
- relative viability (LOU-NH91; first compound 8 µM): 0.429
- relative viability (LXF-289; first compound 0.253 µM): 0.616
- relative viability (LXF-289; first compound 0.8 µM): 0.63
- relative viability (LXF-289; first compound 2.53 µM): 0.657
- relative viability (LXF-289; first compound 8 µM): 0.668
- relative viability (NCI-H1395; first compound 0.253 µM): 0.649
- relative viability (NCI-H1395; first compound 2.53 µM): 0.701
- relative viability (NCI-H1395; first compound 8 µM): 0.592
- relative viability (NCI-H1651; first compound 0.253 µM): 0.504
- relative viability (NCI-H1651; first compound 0.8 µM): 0.485
- relative viability (NCI-H1651; first compound 2.53 µM): 0.526
- relative viability (NCI-H1651; first compound 8 µM): 0.489
- relative viability (NCI-H1793; first compound 0.253 µM): 0.363
- relative viability (NCI-H1793; first compound 2.53 µM): 0.296
- relative viability (NCI-H1793; first compound 8 µM): 0.256
- relative viability (NCI-H1915; first compound 0.253 µM): 0.549
- relative viability (NCI-H1915; first compound 0.8 µM): 0.554
- relative viability (NCI-H1915; first compound 2.53 µM): 0.578
- relative viability (NCI-H1915; first compound 8 µM): 0.486
- relative viability (NCI-H2085; first compound 0.253 µM): 0.48
- relative viability (NCI-H2085; first compound 0.8 µM): 0.496
- relative viability (NCI-H2085; first compound 2.53 µM): 0.432
- relative viability (NCI-H2085; first compound 8 µM): 0.464
- relative viability (NCI-H2170; first compound 0.253 µM): 0.436
- relative viability (NCI-H2170; first compound 0.8 µM): 0.374
- relative viability (NCI-H2170; first compound 2.53 µM): 0.433
- relative viability (NCI-H2170; first compound 8 µM): 0.314
- relative viability (NCI-H2347; first compound 0.253 µM): 0.492
- relative viability (NCI-H2347; first compound 0.8 µM): 0.446
- relative viability (NCI-H2347; first compound 2.53 µM): 0.494
- relative viability (NCI-H2347; first compound 8 µM): 0.424
- relative viability (NCI-H322M; first compound 0.253 µM): 0.53
- relative viability (NCI-H322M; first compound 0.8 µM): 0.521
- relative viability (NCI-H322M; first compound 2.53 µM): 0.473
- relative viability (NCI-H322M; first compound 8 µM): 0.488
- relative viability (NCI-H441; first compound 0.253 µM): 0.239
- relative viability (NCI-H441; first compound 0.8 µM): 0.205
- relative viability (NCI-H441; first compound 2.53 µM): 0.264
- relative viability (NCI-H441; first compound 8 µM): 0.202
- relative viability (NCI-H522; first compound 0.253 µM): 0.91
- relative viability (NCI-H522; first compound 0.8 µM): 1
- relative viability (NCI-H522; first compound 2.53 µM): 1.19
- relative viability (NCI-H522; first compound 8 µM): 0.716
- relative viability (NCI-H647; first compound 0.253 µM): 0.467
- relative viability (NCI-H647; first compound 0.8 µM): 0.36
- relative viability (NCI-H647; first compound 2.53 µM): 0.402
- relative viability (NCI-H647; first compound 8 µM): 0.287
- relative viability (NCI-H650; first compound 0.253 µM): 0.405
- relative viability (NCI-H650; first compound 0.8 µM): 0.303
- relative viability (NCI-H650; first compound 2.53 µM): 0.326
- relative viability (NCI-H650; first compound 8 µM): 0.355
- relative viability (NCI-H661; first compound 0.253 µM): 0.386
- relative viability (NCI-H661; first compound 0.8 µM): 0.377
- relative viability (NCI-H661; first compound 2.53 µM): 0.348
- relative viability (NCI-H661; first compound 8 µM): 0.357
- relative viability (NCI-H838; first compound 0.253 µM): 0.172
- relative viability (NCI-H838; first compound 0.8 µM): 0.19
- relative viability (NCI-H838; first compound 2.53 µM): 0.256
- relative viability (NCI-H838; first compound 8 µM): 0.18
- relative viability (SK-MES-1; first compound 0.253 µM): 0.317
- relative viability (SK-MES-1; first compound 0.8 µM): 0.312
- relative viability (SK-MES-1; first compound 2.53 µM): 0.278
- relative viability (SK-MES-1; first compound 8 µM): 0.156
- relative viability (UMC-11; first compound 0.253 µM): 0.328
- relative viability (UMC-11; first compound 0.8 µM): 0.363
- relative viability (UMC-11; first compound 2.53 µM): 0.308
- relative viability (UMC-11; first compound 8 µM): 0.285
